One assay deals with T1, PPARα (Homo sapiens, UniProt Q07869).
T1 construct: expression construct for the full-length human receptor under investigation; expressed in transfected cells; host or cells: human U2-OS cells (ATCC HTB-96), stably transfected
T1 sequence (Q07869 1-468): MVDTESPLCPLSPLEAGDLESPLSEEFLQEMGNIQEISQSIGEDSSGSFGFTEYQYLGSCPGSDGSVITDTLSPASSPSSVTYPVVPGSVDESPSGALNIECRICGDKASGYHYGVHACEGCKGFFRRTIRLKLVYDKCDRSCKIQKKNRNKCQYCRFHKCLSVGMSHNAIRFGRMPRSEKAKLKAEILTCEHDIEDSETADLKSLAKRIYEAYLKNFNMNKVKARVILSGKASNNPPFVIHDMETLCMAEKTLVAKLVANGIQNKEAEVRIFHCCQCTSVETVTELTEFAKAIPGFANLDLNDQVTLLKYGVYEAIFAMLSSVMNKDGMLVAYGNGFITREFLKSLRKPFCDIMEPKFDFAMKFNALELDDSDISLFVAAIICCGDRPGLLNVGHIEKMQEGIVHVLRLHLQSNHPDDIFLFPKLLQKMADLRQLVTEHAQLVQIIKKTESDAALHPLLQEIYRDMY
The experiment in a line: PPARα CALUX reporter gene assay. The arrangement: key: –: no effect observed up to the highest test concentration. Particulars: PC10, 24 h exposure. It is filed as cell-based. The source says: Succinyl chloride (2 M soln. in dichloromethane), N-methylbutylamine 90%, N-ethylbutylamine 95%, Dibutylamine 99% were purchased from TCI chemicals. K60 silica was purchased from Merck chemicals. Succinic acid ≥99.0%, N-methylpyrrolidinone 99.0%, 1-bromooctane ≥97.0%, 1-methylimidazole 99.0%, iodobenzene 99.9%, methylacrylate 99.9%, palladium(II) acetate ≥99.9% trace metals basis, triethylamine ≥99.0%, trimesic acid 95%, copper(II) nitrate trihydrate ≥99.0%, 2-methylimidazole 99.0%, zinc(II) nitrate hexahydrate ≥99.0%, para-cymene 99.0%, 1,4-dioxane 99.8% (anhydrous), 4-nitroaniline ≥99.0%, 1-octanol ≥99.0%, diglyme ≥99.0%, DMSO-d6 (99.8% D) and chloroform-d (99.8% D) were purchased from Sigma-Aldrich. Toluene ≥99.0%, hexane ≥99.5%, DCM ≥99.5%, chloroform ≥99.5%, DMSO ≥99.0% were purchased from VWR. N,N-diethyl-4-nitroaniline ≥98.0% was purchased from Alfa Aeser. Cyrene was supplied by Circa group. N-butylpyrrolidinone was supplied by Eastman chemicals. N,N-dimethylformamide 99.9% and N,N-dimethylacetamide 99.9% were purchased from Fischer. The flakes of Ultrason® E3020 P Polyarylethersulfone of 55,000 Da were obtained from INGE.BASF, Germany. The CALUX cell lines have been described previously.[1] They are based on human U2-OS cells (ATCC, HTB-96) stably transfected with an expression construct for the full-length human receptor under investigation, and a reporter construct consisting of multimerized responsive elements for the cognate receptor coupled to a minimal promoter element (TATA) and a luciferase gene. Cells were maintained as described previously,[2] using cell culture media and supplements from Fisher Scientific as described in the experimental procedures section. […]
(§1) In vitro reporter gene assays
(§2) The automated CALUX assays were carried out similarly as described earlier,[12] with some adaptations. In brief, the assay was performed in CO2 independent medium (Fisher Scientific, […]
(§3) supplement (Fisher Scientific, 11574466), 10 U/mL penicillin and 10 µg/mL streptomycin. A cell suspension in assay medium was made of 1 × 10^5cells/mL, and white 384-wells plates were seeded with 30 µl cell suspension/well. After 24 h, exposure medium was prepared. A dilution series in 0.5log unit increments of each test compound (in DMSO) was added to a 96-wells plate containing assay medium (2% v/v). Of this exposure mixture, 30 µl was added to the assay plates containing the CALUX cells, resulting in a final DMSO concentration of 1%. Additionally, DMSO blanks and a full dose response curve of the relevant reference compound were included on each plate. All samples were tested in triplicate. The preparation of the compound dilution series as well as the exposure of the cells were performed on a Hamilton StarLET liquid handling robot coupled to a Cytomat incubator.
(§4) Directly after exposure, plates were sealed with non-breathing plate seals (Plate sealer, easy seal transparent; Greiner-Bio-One, 676001). After 24 h the exposure medium was removed using an EL406 washer-dispenser (BioTek) and 10 µl/well triton lysisbuffer was added by the EL406.
Subsequently, the luciferase signal was measured in a luminometer (InfinitePro coupled to a Connect Stacker, both TECAN). In order to be able to detect receptor antagonism, several assays were also performed in antagonistic mode. […]
The luminometer data was analysed as follows; the average of the triplicate wells was determined, and the average blank (DMSO) value was subtracted. […]

Another assay concerns AP1. The experiment in a line: AP1 CALUX assay (cell cycle control). It counts as cell-based, human. Further details: key: –: no effect observed up to the highest test concentration. Conditions: cell signaling pathway assay, 24 h exposure.
From the text: Six of the CALUX assays (TCF through p53) detect activation of several cellular signaling pathways, which are indicative of general stress and acute toxicity, but also a range of more specific types of toxicity, including reproductive toxicity. […]
DCM ≥99.5%, chloroform ≥99.5%, DMSO ≥99.0% were purchased from VWR. […]
Polyarylethersulfone of 55,000 Da were obtained from INGE.BASF, Germany. The CALUX cell lines have been described previously.[1] They are based on human U2-OS cells (ATCC, HTB-96) stably transfected with an expression construct for the full-length human receptor under investigation, and a reporter construct consisting of multimerized responsive elements for the cognate receptor coupled to a minimal promoter element (TATA) and a luciferase gene. Cells were maintained as described previously,[2] using cell culture media and supplements from Fisher Scientific as described in the experimental procedures section. […]
as §1, §2, §3, §4
Subsequently, the luciferase signal was measured in a luminometer (InfinitePro coupled to a Connect Stacker, both TECAN). In order to be able to detect receptor antagonism, several assays were also performed in antagonistic mode. The assay procedure was as described above, with the only exception that the EC50 concentration of the reference agonist was present during the exposure.
The luminometer data was analysed as follows; the average of the triplicate wells was determined, and the average blank (DMSO) value was subtracted. For receptor-based assays the maximum response elicited by the reference compound was set to 100% (full receptor- or pathway activation), and the other values were scaled accordingly. GraphPad Prism was used to fit a sigmoidal curve through the data (four parameters, variable slope). […] For antagonist- and cytotoxicity experiments, PC20 values were determined instead, which was defined as the concentration where the test compound causes a 20% decrease in the basal signal, which was […]
curve, the signal induction above background (DMSO) was determined, and the concentration where the compound elicited a 1.5-fold increase above background was used as LEC.

The structures appear in SMILES notation.

With `CCCCN(CC)C(=O)CCC(=O)N(CC)CCCC` [EBSA, N,N′‐diethyl‐N,N′‐dibutylsuccindiamide], the “LEC PPARα” value on PPARα is listed as “–”. Moreover, the “LEC AP1” value in the assay with AP1 is given as “–”.

As for `CCCCN(CCCC)C(=O)CCC(=O)N(CCCC)CCCC` [TBSA, N,N,N′,N′‐tetrabutylsuccindiamide], the “LEC PPARα” value at PPARα is “–”. The “LEC AP1” value in the assay with AP1 is given as “–”.

Regarding `CCCCN(C)C(=O)CCC(=O)N(C)CCCC` [MBSA, N,N′‐dimethyl‐N,N′‐dibutylsuccindiamide], the “LEC PPARα” value on PPARα was “–”. For the same molecule, the “LEC AP1” value in the assay on AP1 is listed as “–”.

Consider `CCCCN1CCCC1=O` [NBP, N‐Butylpyrrolidinone, reference compound], for which, at PPARα, the “LEC PPARα” value is “–”. The “LEC AP1” value in the assay with AP1 is listed as “–”.

Regarding `CN1CCCC1=O` [NMP, N‐methyl‐2‐pyrrolidone, reference compound], the “LEC PPARα” value on PPARα is reported as “–”. Further, the “LEC AP1” value in the assay with AP1 is on record as −1.5 Log M.

The values are drawn from article PMC7318222, “A Family of Water‐Immiscible, Dipolar Aprotic, Diamide Solvents from Succinic Acid” (Chemsuschem, 2020).
